What was measured:
AVN conduction = assay: AV block duration after ACH bolus, direct AVN injection vs. intravenous, anesthetized canines; format: in vivo
Source text: (§1) This study evaluated the effect of locally administered acetylcholine (ACH) on AVN conduction and refractoriness properties during sinus rhythm and AF. Canines (n=7) were anesthetized, and instrumented to assess atrial and ventricular electrophysiology as well as arterial blood pressure. A custom drug delivery catheter was fixed into the AVN region using a combination of standard electrophysiological mapping techniques and image guided therapy via a cardiac navigation system.

[1] = tested on: AVN conduction and refractoriness; assay: Incremental ACH infusion into the AVN: ventricular rate during electrically induced AF, AVN refractoriness, intervals, blood pressure; format: in vivo, Canines; conditions: for Ventricular rate during electrically induced AF: infusion into AVN, decreased from 182±32
Source text: as §1
Subsequently, incremental doses of ACH starting at 10 ug/min were infused into the AVN until complete atrioventricular heart block (AVB) was observed.

[2] = Intravenous Bolus (n = 5), identical dose

SMILES: CC(=O)OCC[N+](C)(C)C [ACH, acetylcholine]
- AV Block III duration (AVN conduction; Direct AVN Bolus (n = 6)): 12.30 ± 4.72 min
- Overall AV Block duration (AV block I, II and III) (AVN conduction; Direct AVN Bolus (n = 6)): 41.19 ± 27.14 min
- AV Block III duration (AVN conduction; [2]): 0.00 ± 0.00 min
- Overall AV Block duration (AV block I, II and III) (AVN conduction; [2]): 0.31 ± 0.43 min
- PP intervals, HV intervals and blood pressure ([1]; ACH dose producing first AVB): remained unchanged
- Time to full reversal of observed effects after stopping ACH infusion ([1]; after stopping infusion into AVN): ≤ 20 min
- Ventricular rate during electrically induced AF ([1]; dosage inducing first degree AVB, p<0.05): 77±28 bpm
- Ventricular rate during electrically induced AF ([1]; dosage inducing third degree AVB, p<0.05): 28±8 bpm
- AVN effective refractory period (ERP) ([1]; first degree AVB dose, pacing cycle length 400 msec, increased from 186±37, p=0.06): 282 ± 33 ms
- Wenckebach cycle length ([1]; first degree AVB dose, increased from 271±29, p<0.05): 378 ± 58 ms

— patent US8892197B2, “Method and apparatus to control conduction through the heart to treat cardiac conditions” (Medtronic, Inc., priority 2005, dated 2014)
